Here are results for seven compounds from patent US20240009213A1, “TREATMENT FOR VIRAL INFECTION” (priority 2020, published 2024).

The test system of assay [1] is influenza A/California/07/2009 (H1N1), influenza A/PR/8/1934 (H1N1), influenza A/Vietnam/1194/2004 (H5N1). The assay can be described thus: microbe, parasite or virus in culture. It counts as cell-based, influenza A virus. As to conditions: for IC50: Influenza A virus, MDCK, 50 h.
Assay [2] has as its system influenza A/PuertoRico/1934 (H1N1). Description: Protection of mice against lethal influenza H1N1 challenge. It counts as in vivo, BALB/c mice. The conditions noted are these: 5×LD50 influenza A/PuertoRico/1934 (H1N1) day 0; 25 mg/kg orally once daily day 1 to day 7.
Assay [3] deals with SARS-CoV-2. The assay can be described thus: Protection of mice against lethal SARS-CoV-2 challenge. It counts as in vivo, F1 mice of BALB/c/C57BL6 mice. The conditions noted are these: 5×LD50 SARS-CoV-2 day 0; 25 mg/kg orally once daily day 1 to day 7.
In assay [4] the test system is SARS-CoV-2. It counts as cell-based.

The structures appear in SMILES notation.

`C[C@@H](Oc1cc(-c2cnn(C3CCNCC3)c2)cnc1N)c1c(Cl)ccc(F)c1Cl` [crizotinib, 3-[(1R)-1-(2,6-dichloro-3-fluorophenyl)ethoxy]-5-(1-piperidin-4-ylpyrazol-4-yl)pyridin-2-amine] registered an IC50 in assay [1] of 1000 to 4000 nM. The survival of mice in assay [2] is reported as 38%.
`Cc1cc(Nc2ncc(Cl)c(Nc3ccccc3S(=O)(=O)C(C)C)n2)c(OC(C)C)cc1C1CCNCC1` [ceritinib, 5-chloro-2-N-(5-methyl-4-piperidin-4-yl-2-propan-2-yloxyphenyl)-4-N-(2-propan-2-ylsulfonylphenyl)pyrimidine-2,4-diamine]: in assay [1], the 50% inhibitory concentration (IC50) lay in the range of 100 to 1000 nM. The survival of mice in the assay with SARS-CoV-2 [3] worked out at 29%.
For the compound `C[C@@H]1CN(C(=O)c2ccc(NC(=O)c3cc(O[C@H](C)c4c(Cl)ccc(F)c4Cl)c(N)nn3)cc2)C[C@H](C)N1` [ensartinib, 6-amino-5-[(1R)-1-(2,6-dichloro-3-fluorophenyl)ethoxy]-N-[4-[(3R,5S)-3,5-dimethylpiperazine-1-carbonyl]phenyl]pyridazine-3-carboxamide], in assay [1], the half-inhibitory concentration (IC50) fell in the range of 1000 to 4000 nM.
`COc1cc(N2CCC(N3CCN(C)CC3)CC2)ccc1Nc1ncc(Cl)c(Nc2ccccc2P(C)(C)=O)n1` [brigatinib, 5-chloro-4-N-(2-dimethylphosphorylphenyl)-2-N-[2-methoxy-4-[4-(4-methylpiperazin-1-yl)piperidin-1-yl]phenyl]pyrimidine-2,4-diamine] had an IC50 in assay [1] of 1000 to 4000 nM. In assay [2], the survival of mice is given as 12.5%.
Turning to `CCc1cc2c(cc1N1CCC(N3CCOCC3)CC1)C(C)(C)c1[nH]c3cc(C#N)ccc3c1C2=O` [alectinib, 9-ethyl-6,6-dimethyl-8-(4-morpholin-4-ylpiperidin-1-yl)-11-oxo-5H-benzo[b]carbazole-3-carbonitrile], the 50% inhibitory concentration (IC50) in assay [1] was in the range of 1000 to 4000 nM.
In assay [1], `CN1CCN(c2ccc(C(=O)Nc3n[nH]c4ccc(Cc5cc(F)cc(F)c5)cc34)c(NC3CCOCC3)c2)CC1` [entrectinib, N-[5-[(3,5-difluorophenyl)methyl]-1H-indazol-3-yl]-4-(4-methylpiperazin-1-yl)-2-(oxan-4-ylamino)benzamide] showed an IC50 of 1000 to 4000 nM.
Consider `C[C@H]1Oc2cc(cnc2N)-c2c(nn(C)c2C#N)CN(C)C(=O)c2ccc(F)cc21` [lorlatinib], for which, in assay [1], the “virus assembly/secretion (viral OD, viral titres)” value is recorded as “viral titres remain high for all doses tested”. Also, the “inhibition of SARS-CoV-2” value in the assay with SARS-CoV-2 [4] is recorded as “but not lorlatinib, inhibited SARS-CoV-2”.

The term IC50 denotes the concentration that inhibits the measured activity by half. High values mean weaker potency, low ones greater potency.
